# Measured values reported in ChEMBL document CHEMBL4402532, “Heme Oxygenase-2 (HO-2) as a therapeutic target: Activators and inhibitors” (Eur J Med Chem, 2019).
# pIC50: −log10 of the molar value.
# Legend:
# Format in all cases: microsomes
# [1] = molecular target: T1, Heme oxygenase 1 (Rattus norvegicus) (UniProt P06762); assay: Activation of rat spleen microsome HO-1 preincubated for 10 mins followed by NADPH addition and measured after 15 mins by gas chromatography relative to control; design: concentration or dose not given beside the values
# T1 sequence (whole entry): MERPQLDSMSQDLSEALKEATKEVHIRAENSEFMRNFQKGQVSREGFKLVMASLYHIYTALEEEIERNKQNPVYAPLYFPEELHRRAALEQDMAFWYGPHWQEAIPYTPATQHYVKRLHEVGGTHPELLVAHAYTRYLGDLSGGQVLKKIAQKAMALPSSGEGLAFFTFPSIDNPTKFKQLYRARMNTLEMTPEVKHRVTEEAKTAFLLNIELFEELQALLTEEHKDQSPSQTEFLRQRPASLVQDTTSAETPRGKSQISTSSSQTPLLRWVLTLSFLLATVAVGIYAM
# [2] = molecular target: T2, Heme oxygenase 2 (Rattus norvegicus) (UniProt P23711); assay: Activation of rat brain microsome HO-2 […] preincubated for 10 mins followed by NADPH addition and measured after 15 mins by gas chromatography relative to control; design: concentration or dose not given beside the values
# T2 sequence (whole entry): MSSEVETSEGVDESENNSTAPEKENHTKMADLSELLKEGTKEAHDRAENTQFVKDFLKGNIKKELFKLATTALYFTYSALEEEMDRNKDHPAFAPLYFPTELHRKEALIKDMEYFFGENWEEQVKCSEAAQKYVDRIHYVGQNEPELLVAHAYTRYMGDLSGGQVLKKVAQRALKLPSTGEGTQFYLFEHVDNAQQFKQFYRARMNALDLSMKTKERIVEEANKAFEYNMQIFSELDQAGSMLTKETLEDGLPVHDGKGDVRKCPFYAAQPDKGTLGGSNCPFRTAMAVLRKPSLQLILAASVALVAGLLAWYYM
# Heme oxygenase 1 [3] = molecular target: T3, Heme oxygenase 1 (Rattus norvegicus, UniProt P06762); assay: Inhibition of Sprague-Dawley rat spleen microsome HO-1 preincubated for 10 mins followed by beta-NADPH addition and measured after 15 mins by gas chromatography
# T3 sequence (P06762 whole entry): T1 sequence (whole entry)
# Heme oxygenase 2 [4] = molecular target: T4, Heme oxygenase 2 (Rattus norvegicus, UniProt P23711); assay: Inhibition of Sprague-Dawley rat brain microsome HO-2 preincubated for 10 mins followed by beta-NADPH addition and measured after 15 mins by gas chromatography
# T4 sequence (P23711 whole entry): T2 sequence (whole entry)
# Heme oxygenase 1 [5] = molecular target: T3, Heme oxygenase 1; assay: Inhibition of rat spleen microsome HO-1 preincubated for 10 mins followed by beta-NADPH addition and measured after 15 mins by gas chromatography
# Heme oxygenase 2 [6] = molecular target: T4, Heme oxygenase 2; assay: Inhibition of rat brain microsome HO-2 preincubated for 10 mins followed by beta-NADPH addition and measured after 15 mins by gas chromatography
SMILES,pIC50 (Heme oxygenase 1 [3]),pIC50 (Heme oxygenase 2 [4]),further results
Cc1oc2c(c1C(=O)N1CCCC1)C(=O)c1ccccc1C2=O,,,Activity [1]: 91%; Activity [2]: 602%
COc1ccc(NC2=C(N3CCCCC3)C(=O)c3ccccc3C2=O)cc1,,,Activity [1]: 82%; Activity [2]: 249%
O=C(Cn1ccnc1)c1ccc(C2CCCCC2)cc1,5.30,5.22,
O=C(Cn1cncn1)c1ccc(Cc2ccccc2)cc1,5.57,5.15,
Cc1ccc(Cn2c(CC3CCCC3)nc3ccccc32)cc1,4.74,5.07,
Cc1ccc(S(=O)(=O)C[C@@H]2CO[C@@](CCc3ccc(Cl)cc3)(Cn3ccnc3)O2)cc1,5.22,5.52,
COc1ccc(CC(O)CCn2ccnc2)cc1 (stereo unspecified),6.15,5.22,
O=C(Cn1ccnc1)c1ccc(Cl)c(Cl)c1,5.91,,
O=C(Cn1ccnc1)c1cccc2ccccc12,5.65,5.00,
Brc1ccc(Cn2c(CC3CCCC3)nc3ccccc32)cc1,4.12,5.08,
c1ccc(CCCCn2ccnc2)cc1,6.60,5.17,
O=C1C=CC(=O)c2ccccc21,,,Activity [1]: 71%; Activity [2]: 503%
O=C(Cc1ccc(Br)cc1)Cn1ccnn1,6.41,5.52,
CC(C)(C)N1COc2ccc3c4c(oc3c2C1)C(=O)c1ccccc1C4=O,,,Activity [1]: 85%; Activity [2]: 345%
O=C(Cn1ccnc1)c1ccc(Cl)c(Cl)c1Cl,5.68,5.22,
c1ccc(Cn2c(CC3CC4CCC3C4)nc3ccccc32)cc1 (stereo unspecified),< 4.00,5.20,
O=C1CCCc2ccccc21,,,Activity [1]: 98%; Activity [2]: 96%
O=C1C(O)=C(Cl)C(=O)c2ccccc21,,,Activity [1]: 106%; Activity [2]: 108%
c1ccc(CSCCn2ccnc2)cc1,,5.00,
O[C@H](Cn1ccnc1)c1ccc(CCc2ccccc2)cc1,6.65,5.10,
OC(Cn1ccnc1)CC12CC3CC(CC(C3)C1)C2 (stereo unspecified),5.70,5.19,
c1ccc(CCCCCCn2ccnc2)cc1,5.55,4.70,
CC(C)N1CCN(c2ccc(OCC3COC(Cn4cncn4)(c4ccc(Cl)cc4Cl)O3)cc2)CC1 (stereo unspecified) [TERCONAZOLE],,,pIC50 (Heme oxygenase 1 [5]): 6.39; pIC50 (Heme oxygenase 2 [6]): 5.30
Fc1ccc(CO[C@@H](CCc2ccc(Cl)cc2)Cn2ccnc2)cc1,6.05,6.00,
